# In US20090259054A1, “Methods and Compositions for the Treatment of Angiogenesis and Macular Degeneration” (The Texas A&M University System, priority 2008, published 2009):
# Entries after “also recorded” stand apart in the source; their conditions may differ.
# Columns and labels:
# VEGFR2 = target: T1, VEGFR2 (Homo sapiens, UniProt P35968); experiment: VEGFR2 tyrosine phosphorylation in VEGF stimulated HUVEC cells (immunoprecipitation, Western blotting); format: cell-based; details: 1 nM GA, 4 nM VEGF, 5 minutes
# T1 construct: endogenous in cells; host or cells: HUVEC
# T1 sequence (P35968 20-1356): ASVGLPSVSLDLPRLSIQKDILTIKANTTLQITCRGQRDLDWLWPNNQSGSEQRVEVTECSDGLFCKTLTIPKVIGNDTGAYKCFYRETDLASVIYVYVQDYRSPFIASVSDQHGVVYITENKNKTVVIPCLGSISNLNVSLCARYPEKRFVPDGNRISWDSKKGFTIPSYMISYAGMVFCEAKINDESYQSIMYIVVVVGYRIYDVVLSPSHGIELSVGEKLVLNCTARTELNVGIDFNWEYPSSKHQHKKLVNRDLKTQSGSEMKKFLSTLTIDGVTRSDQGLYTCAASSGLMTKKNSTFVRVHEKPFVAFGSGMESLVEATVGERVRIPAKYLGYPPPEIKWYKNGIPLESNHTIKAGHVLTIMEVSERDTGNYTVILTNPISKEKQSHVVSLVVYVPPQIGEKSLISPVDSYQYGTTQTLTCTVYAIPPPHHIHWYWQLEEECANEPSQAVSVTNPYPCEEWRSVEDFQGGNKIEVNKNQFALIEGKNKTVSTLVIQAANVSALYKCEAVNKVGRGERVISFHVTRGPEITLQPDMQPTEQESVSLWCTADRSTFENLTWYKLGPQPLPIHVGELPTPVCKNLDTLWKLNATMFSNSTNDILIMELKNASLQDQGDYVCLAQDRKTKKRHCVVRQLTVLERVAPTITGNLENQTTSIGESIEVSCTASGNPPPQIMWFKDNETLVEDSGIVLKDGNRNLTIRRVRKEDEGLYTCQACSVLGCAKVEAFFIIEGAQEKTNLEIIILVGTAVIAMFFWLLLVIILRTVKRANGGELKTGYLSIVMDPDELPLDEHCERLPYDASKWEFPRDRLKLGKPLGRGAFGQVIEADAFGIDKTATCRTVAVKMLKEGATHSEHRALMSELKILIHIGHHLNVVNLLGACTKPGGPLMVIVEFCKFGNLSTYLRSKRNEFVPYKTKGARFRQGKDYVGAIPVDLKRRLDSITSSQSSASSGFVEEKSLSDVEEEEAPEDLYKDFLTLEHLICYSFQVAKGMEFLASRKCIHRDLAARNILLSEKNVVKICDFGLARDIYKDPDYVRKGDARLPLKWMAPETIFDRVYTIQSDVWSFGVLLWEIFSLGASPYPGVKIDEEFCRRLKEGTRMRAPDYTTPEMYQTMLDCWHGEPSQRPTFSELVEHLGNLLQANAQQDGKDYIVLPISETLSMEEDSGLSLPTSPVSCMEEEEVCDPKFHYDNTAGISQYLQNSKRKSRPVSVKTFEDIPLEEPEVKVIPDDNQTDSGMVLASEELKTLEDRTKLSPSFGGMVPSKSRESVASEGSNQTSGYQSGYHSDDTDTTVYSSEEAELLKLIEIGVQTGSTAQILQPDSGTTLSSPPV
# Experimental: (§1) After starvation in ECGM medium without serum overnight, HUVEC cells were washed with 1×PBS twice, followed with incubation in M199 medium. HUVEC cells were then treated with 1 nM of GA and/or 4 nM of VEGF for 5 minutes, then subjected to immunoprecipitation using anti-VEGFR2 antibody. Anti-phosphotyrosine antibody was used for the detection of phosphorylation of the tyrosine residue of VEGFR2. […] Reaction cocktail containing 100 ng of active VEGFR2 was incubated with different concentrations of GA for 5 minutes at room temperature. Substrate peptide cocktail was added to the pre-incubated reaction cocktail/GA compound. After incubation at room temperature for 30 minutes, stop buffer was added to halt the reaction. 25 μl of each reaction was then transferred with 75 μl dH2O per well into a 96-well streptavidin coated plate and incubated at room temperature for 60 minutes. […] The stop solution was added and the plate was detected at 405 nm. […]
# VEGFR2 is the primary receptor in VEGF signaling pathway that regulates endothelial cell proliferation, migration, differentiation, tube formation, and angiogenesis. […] HUVEC cells were stimulated with VEGF; phosphorylation and activation of VEGFR2 was detected by immunoprecipitation with anti-VEGFR2 (Flk-1) antibody and by Western blotting with anti-pTyr-antibody for phosphorylation of VEGFR2.
# PC3 cells = experiment: Proliferation assay (CellTiter 96 Aqueous One); format: cell-based; details: Homo sapiens, PC-3; PC3 cancer cells; read-out: Concentration required to inhibit PC3 cell proliferation by 50%
# Excerpt: (§2) HUVEC and PC3 cell proliferation assays with different concentrations of GA were followed according to the CellTiter 96 Aqueous One Solution Cell Proliferation Assay (Promega) and analyzed using a VERSAMAX microplate reader (Molecular Devices).
# HUVEC cells = experiment: Proliferation assay (CellTiter 96 Aqueous One); format: cell-based; details: Homo sapiens, read-out: Concentration that inhibits HUVEC cell proliferation by 50%
# Excerpt: as §2
# VEGF Receptor 2 = target: T2, VEGF Receptor 2 (Homo sapiens, UniProt P35968); experiment: VEGF Receptor 2 inhibition assay (HTScan VEGF receptor 2 kinase assay kit); format: biochemical; details: 100 ng active VEGFR2
# T2 construct: purchased Cell Signaling Technology
# T2 sequence (P35968 789-1356 limits assumed): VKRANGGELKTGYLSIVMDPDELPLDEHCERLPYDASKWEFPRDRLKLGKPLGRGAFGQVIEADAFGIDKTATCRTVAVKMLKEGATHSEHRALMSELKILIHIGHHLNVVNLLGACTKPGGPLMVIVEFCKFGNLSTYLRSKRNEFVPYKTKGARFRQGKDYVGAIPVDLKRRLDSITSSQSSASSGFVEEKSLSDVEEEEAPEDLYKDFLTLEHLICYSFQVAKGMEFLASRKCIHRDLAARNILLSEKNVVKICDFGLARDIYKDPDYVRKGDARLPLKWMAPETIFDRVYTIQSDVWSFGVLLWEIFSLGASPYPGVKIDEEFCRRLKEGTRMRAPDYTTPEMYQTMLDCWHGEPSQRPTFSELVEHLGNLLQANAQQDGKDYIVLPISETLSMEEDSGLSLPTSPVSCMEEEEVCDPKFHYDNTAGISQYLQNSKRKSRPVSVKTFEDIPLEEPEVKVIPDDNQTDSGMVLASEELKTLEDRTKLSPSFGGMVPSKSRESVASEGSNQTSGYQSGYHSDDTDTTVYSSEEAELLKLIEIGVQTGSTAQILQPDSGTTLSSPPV
# Experimental: as §1
# 12.5 μl of the 4× reaction cocktail containing 100 ng VEGF Receptor 2 (supplied from the HTScan® VEGF receptor 2 kinase assay kit, Cell Signaling Technology, USA) was incubated with 12.5 μl/tube of GA for 5 minutes at room temperature. […] The plate was then detected at 405 nm with VERSAMAX microplate reader (Molecular Devices). […]
# mice exposed to OIR = experiment: Mouse oxygen-induced ischemic retinopathy (OIR) model, retinal neovascularization; format: in vivo; details: GA 10 mg/kg, P17 mice exposed to OIR, p<0.001
# Experimental: FIG. 9B is a bar graph providing a quantitative assessments of retinal neovascularization in eyes from P17 control and GA-treated mice exposed to OIR. Data in each column are the mean SD values from four eyes of four mice. […] GA concentration was used as 10 mg/kg for this mouse model. Assessment of retinal neovasculature in control (left) and GA-treated (right) mice during OIR.P7 mice were exposed to a cycle of hyperoxia and normoxia, and eyes were removed for appropriate analysis. The abnormal angiogenesis associated with vitreal invasion can be seen as glomeruloid-like tufts of cell (arrow).
# c-Src = c-Src phosphorylation in HUVEC cells (immunoprecipitation, Western blotting); format: cell-based, human; details: HUVEC cells with or without VEGF, GA 1-40 nM, 5 minutes
# Experimental: as §1
# HUVEC cells pretreated with or without 4 nM VEGF for 5 min were treated with or without different concentrations of GA for another 5 minutes. […] Anti-cleaved caspase 3 antibody (Santa Cruz Biotech) was used for detecting cleaved caspase 3 and polyADP ribose polymerase (PARP) cleavage was detected by an anti-PARP p85 fragment (Promega) in apoptosis assays.
smiles,measurement,setting,value
"CC(C)=CCC[C@]1(C)C=Cc2c(O)c3c(c(CC=C(C)C)c2O1)O[C@]12C(=C[C@@H]4C[C@H]1C(C)(C)O[C@@]2(C/C=C(/C)C(=O)O)C4=O)C3=O [GA, gambogic acid]",Phosphorylation and activation of VEGFR2 in HUVEC cells,VEGFR2,dramatically inhibited the phosphorylation of VEGFR2; also recorded: strongly inhibited VEGFR2 kinase activity
same,IC50,PC3 cells,> 400 nM
same,IC50,HUVEC cells,80 nM
same,IC50,VEGF Receptor 2,0.012 nM
same,Retinal neovascularization,mice exposed to OIR,significantly inhibits retinal neovascularization; also recorded: significant difference in the degree of neovascularization
same,Phosphorylation and activation of c-Src,c-Src,significantly inhibited the phosphorylation and activation
